Measurements reported in US20250236616A1, “IMMUNOMODULATING AZALIDES” (Zoetis Services LLC, priority 2021, published 2025).
Read-outs that look alike come from different tables or passages of the source. Marks after values point to notes of the source that are not given here.

Legend:
Assay type in all cases: cell-based
[1] = test system: BRD pathogens, M. haemolytica and P. multocida; assay: MIC screening panel, BRD pathogens (CLSI broth micro-dilution)
Excerpt: Primary screening of the compounds of the invention included the evaluation of antibacterial activity of analogs through determination of microbial inhibition concentration (MIC) as per CLSI guidelines. The screening panel included the relevant BRD pathogens: 1) M. haemolytica (e.g., 12726, 46571 and 49023, all AHDRCC; and 33396 (ATCC)); and 2) P. multocida (e.g., 34135 and 46572 (both AHDRCC) and 43137 (ATCC)). In some instances, H. somni (A700025K) pathogens were also included in the screening panel. The AHDRCC strains originated from the Zoetis BRD/SRD surveillance program and refer to the Animal Health Development and Research Culture Collection. In addition, the screen assessed S. aureus (29213 ATCC) as a representative Gram-positive isolate, E.faecalis (19433 ATCC) as a commensal gram-positive gastrointestinal bacterium and E. coli (100, 3110 and 25922 (ATCC)) for the evaluation of efflux potential. The screening panel BRD pathogens were assessed in determining antibacterial activity of the Formula (1) compounds.
All relevant BRD pathogens were initially screened at a top concentration of 64 μg/mL of a Formula (1) compound in an eleven-point dilution series. […] If an Example was purified further, the MICs moved […] essentially two dilutions across all strains tested in the screening panel.
In-Vitro MIC Model Compounds were analyzed for antibacterial activity against a panel of animal health specific gram-positive and gram-negative clinical strains by diluting compounds in DMSO to an appropriate stock concentration to determine the Minimal Inhibitory Concentration (MIC) via a semi-automated broth micro-dilution method (CLSI reference method) with QC strains and anti-microbial agent(s). Specifically, bacteria were grown overnight on TSA w/5% sheep blood agar plates and diluted in saline buffer to a McFarland Standard 0.5, then further diluted in cation-ion adjusted Mueller Hinton Broth to a final concentration of approximately 5×10^5 CFU/mL. 100 μL of inoculated media was added to 96-well plate(s) with 3 μL of serially diluted compound in each row. Depending on strain (see CLSI reference method), bacteria were incubated 18-22 hours at 35-37° C. in ambient air, with 5% CO2 or anaerobically (up to 48 hours).

[2] = test system: TNF-α; assay: Whole bovine blood assay, LPS-induced TNF-α; conditions: fresh whole bovine blood, LPS stimulant, top drug concentration 250 μM
Outline: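 Fresh heparinized bovine whole blood was preincubated with compound 4 h at 37 °C, then stimulated with LPS (final 1 μg/mL) for 18 h at 37 °C. Plasma TNF-α was quantified by MSD U-Plex chemiluminescent immunoassay, normalized to total protein (BCA), and IC50 taken for LPS-induced TNF-α inhibition.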

[3] = test system: IL-1β; assay: Whole bovine blood assay, LPS-induced IL-1β (inhibition / overstimulation); conditions: drug concentration giving overstimulation (OS) of LPS-induced IL-1β, top concentration 250 μM
Outline: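 Fresh heparinized bovine whole blood was preincubated with compound at varying concentrations for 4 h at 37 °C, then stimulated with 1 μg/mL LPS for 18 h. Plasma IL-1β was measured by MSD chemiluminescent immunoassay and normalized to total protein. Values cover inhibition and concentration-dependent overstimulation.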

[4] = test system: IL-6; assay: Whole bovine blood assay, LPS-induced IL-6; conditions: fresh whole bovine blood, LPS stimulant, top drug concentration 250 μM
[5] = Table B, at least one BRD pathogenic strain, top concentration 64 μg/mL, read-out: MIC flag (*) for BRD pathogenic strains
[6] = Table C, at least one BRD pathogenic strain, top concentration 64 μg/mL

| Compound | IC50 ([2]; Bos taurus) [µM] | minimal effective concentration ([3]; Bos taurus, 18 h) [µM] | IC50 ([4]; Bos taurus) [µM] | IC50 [2] [µM] | minimal effective concentration [3] [µM] | IC50 [4] [µM] | MIC flag (*) for BRD pathogenic strains [1, 6] | further results |
| --- | --- | --- | --- | --- | --- | --- | --- | --- |
| CC[C@H]1OC(=O)[C@H](C)[C@@H](O[C@H]2C[C@@](C)(OC)[C@](O)(CCl)[C@H](C)O2)[C@H](C)[C@@H](O[C@@H]2O[C@H](C)C[C@H](N(C)S(=O)(=O)c3ccc(Cl)cc3)[C@H]2O)[C@](C)(O)C[C@@H](C)CN[C@H](C)[C@@H](O)[C@]1(C)O [Example A4-1, 4-chloro-N-((2S,3R,4S,6R)-2-(((2R,3S,4R,5R,8R,10R,11R,12S,13S,14R)-13-(((2R,4R,5S,6S)-5-(chloromethyl)-5-hydroxy-4-methoxy-4,6-dimethyltetrahydro-2H-pyran-2-yl)oxy)-2-ethyl-3,4,10-trihydroxy-3,5,8,10,12,14-hexamethyl-15-oxo-1-oxa-6-azacyclopentadecan-11-yl)oxy)-3-hydroxy-6-methyltetrahydro-2H-pyran-4-yl)-N-methylbenzenesulfonamide] | 44 | 12 | 26 | – | – | – | – | MIC ([1]; BRD pathogens M. haemolytica and P. multocida, read-out: antibacterial / non-antibacterial (MIC class)): > 64 µg/mL |
| CC[C@H]1OC(=O)[C@H](C)[C@@H](O)[C@H](C)[C@@H](O[C@@H]2O[C@H](C)C[C@H](N(C)S(=O)(=O)c3scnc3C)[C@H]2Oc2ccc(F)cc2)[C@](C)(O)C[C@@H](C)CN[C@H](C)[C@@H](O)[C@]1(C)O [Example A-26] | – | – | – | 130 | 16 | 49 | – | MIC flag (*) for BRD pathogenic strains ([1]; Table A, at least one BRD pathogenic strain, top concentration 64 μg/mL): A-26* (MIC ≤64 μg/mL for at least one BRD pathogenic strain) |
| CCCNC[C@]1(O)[C@H](C)O[C@@H](O[C@H]2[C@H](C)[C@@H](O[C@@H]3O[C@H](C)C[C@H](N(C)S(=O)(=O)c4cccnc4)[C@H]3O)[C@](C)(O)C[C@@H](C)CN[C@H](C)[C@@H](O)[C@](C)(O)[C@@H](CC)OC(=O)[C@@H]2C)C[C@@]1(C)OC [Example B-12, N-((2S,3R,4S,6R)-2-(((2R,3S,4R,5R,8R,10R,11R,12S, 13S,14R)-2-ethyl-3,4,10-trihydroxy-13-(((2R,4R,5S,6S)-5-hydroxy-4-methoxy-4,6-dimethyl-5-((propylamino)methyl)tetrahydro-2H-pyran-2-yl)oxy)-3,5,8,10,12,14-hexamethyl-15-oxo-1-oxa-6-azacyclopentadecan-11-yl)oxy)-3-hydroxy-6-methyltetrahydro-2H-pyran-4-yl)-N-methylpyridine-3-sulfonamide] | – | > 250 | – | – | – | – | – | MIC [1, 5]: ≤ 64 µg/mL |
| CCCNC[C@]1(O)[C@H](C)OC(O[C@H]2[C@H](C)[C@@H](O[C@@H]3O[C@H](C)C[C@H](N(C)S(=O)(=O)c4cc(Br)c(Br)s4)[C@H]3Oc3ccc(OC)cc3)[C@](C)(O)C[C@@H](C)CN[C@H](C)[C@@H](O)[C@](C)(O)[C@@H](CC)OC(=O)[C@@H]2C)C[C@@]1(C)OC (stereo partly drawn) [Example B-105, 4,5-dibromo-N-[(2S,3R,4S,6R)-2-[[(2R,3S,4R,5R,8R,10R,11R, 12S, 13S, 14R)-2-ethyl-3,4, 10-trihydroxy-13-[(4R,5S,6S)-5-hydroxy-4-methoxy-4,6-dimethyl-5-(propylaminomethyl)oxan-2-yl]oxy-3,5,8, 10, 12,14-hexamethyl-15-oxo-1-oxa-6-azacyclopentadec-11-yl]oxy]-3-(4-methoxyphenoxy)-6-methyloxan-4-yl]-N-methylthiophene-2-sulfonamide] | 12 | 3 | 7 | – | – | – | – | MIC [1, 5]: ≤ 64 µg/mL |
| CC[C@H]1OC(=O)[C@H](C)[C@@H](OC2CC(C)(OC)C(O)(CN3CCCCC3)[C@@H](C)O2)[C@H](C)[C@@H](O[C@@H]2O[C@H](C)C[C@H](N(C)S(=O)(=O)c3ccc(Cl)cc3)[C@H]2O)[C@](C)(O)C[C@@H](C)CN(C)[C@H](C)[C@@H](O)[C@]1(C)O (stereo partly drawn) [Example C-38, 4-chloro-N-((2S,3R,4S,6R)-2-(((2R,3S,4R,5R,8R,10R,11R,12S,13S,14R)-2-ethyl-3,4,10-trihydroxy-13-(((6R)-5-hydroxy-4-methoxy-4,6-dimethyl-5-(piperidin-1-ylmethyl)tetrahydro-2H-pyran-2-yl)oxy)-3,5,6,8, 10, 12, 14-heptamethyl-15-oxo-1-oxa-6-azacyclopentadecan-11-yl)oxy)-3-hydroxy-6-methyltetrahydro-2H-pyran-4-yl)-N-methylbenzenesulfonamide] | 9 | 28 | 4 | – | – | – | – | MIC ([1]; Table C, at least one BRD pathogenic strain, top concentration 64 μg/mL, read-out: MIC flag (*) for BRD pathogenic strains): ≤ 64 µg/mL |
| CC(=O)O.CC[C@H]1OC(=O)[C@H](C)[C@@H](O[C@H]2C[C@@](C)(OC)[C@](O)(CN3CCCCC3)[C@H](C)O2)[C@H](C)[C@@H](O[C@@H]2O[C@H](C)C[C@H](N(C)S(=O)(=O)Nc3ccc(C(F)(F)F)cc3)[C@H]2O)[C@](C)(O)C[C@@H](C)CN(C)[C@H](C)[C@@H](O)[C@]1(C)O [Example C-57, (2R,3S,4R,5R,8R,10R,11R,12S,13S,14R)-2-ethyl-3,4, 10-trihydroxy-13-[(2R,4R,5S,6S)-5-hydroxy-4-methoxy-4,6-dimethyl-5-(piperidin-1-ylmethyl)oxan-2-yl]oxy-11-[(2S,3R,4S,6R)-3-hydroxy-6-methyl-4-[methyl-[[4-(trifluoromethyl)phenyl]sulfamoyl]amino]oxan-2-yl]oxy-3,5,6,8, 10, 12, 14-heptamethyl-15-oxo-1-oxa-6-azacyclopentadecane, acetic acid] | – | – | – | 6 | 16 | 9 | C-57* (MIC ≤64 μg/mL for at least one BRD pathogenic strain) | – |
| CC(=O)O.CCCN1C[C@H](C)C[C@@](C)(O)[C@H](O[C@@H]2O[C@H](C)C[C@H](N(C)S(=O)(=O)Nc3ccc(C(F)(F)F)cc3)[C@H]2O)[C@@H](C)[C@H](O[C@H]2C[C@@](C)(OC)[C@](O)(CN3CCCCC3)[C@H](C)O2)[C@@H](C)C(=O)O[C@H](CC)[C@@](C)(O)[C@H](O)[C@H]1C [Example C-58, (2R,3S,4R,5R,8R,10R,11R,12S,13S,14R)-2-ethyl-3,4,10-trihydroxy-13-[(2R,4R,5S,6S)-5-hydroxy-4-methoxy-4,6-dimethyl-5-(piperidin-1-ylmethyl)oxan-2-yl]oxy-11-[(2S,3R,4S,6R)-3-hydroxy-6-methyl-4-[methyl-[[4-(trifluoromethyl)phenyl]sulfamoyl]amino]oxan-2-yl]oxy-3,5,8, 10, 12,14-hexamethyl-15-oxo-6-propyl-1-oxa-6-azacyclopentadecane, acetic acid] | – | – | – | 9 | 12 | 13 | C-58* (MIC ≤64 μg/mL for at least one BRD pathogenic strain) | – |
| (2R,3S,4R,5R,8R,10R,11R,12S,13S,14R)-2-ethyl-3,4,10-trihydroxy-13-[(2R,4R,5S,6S)-5-hydroxy-4-methoxy-4,6-dimethyl-5-[(3,3,3-trifluoropropylamino)methyl]oxan-2-yl]oxy-11-[(2S,3R,4S,6R)-3-hydroxy-6-methyl-4-[methyl-[[4-(trifluoromethyl)phenyl]sulfamoyl]amino]oxan-2-yl]oxy-3,5,8, 10, 12,14-hexamethyl-15-oxo-1-oxa-6-azacyclopentadecane [Example B-65] | – | – | – | 9 | 6 | 15 | – | MIC flag (*) for BRD pathogenic strains ([1]; Table B, at least one BRD pathogenic strain, top concentration 64 μg/mL): B-65* (MIC ≤64 μg/mL for at least one BRD pathogenic strain) |
| (2R,3S,4R,5R,8R,10R,11R, 12S, 13S, 14R)-2-ethyl-11-[(2R,3S,4R,6S)-4-[(3-fluorophenyl) sulfamoyl-methylamino]-3-hydroxy-6-methyloxan-2-yl]oxy-3,4, 10-trihydroxy-13-[(2R,4R,5S,6S)-5-hydroxy-4-methoxy-4,6-dimethyl-5-(piperidin-1-ylmethyl)-oxan-2-yl]oxy-3,5,8,10, 12,14-hexamethyl-15-oxo-1-oxa-6-azacyclopentadecane [Example C-24] | – | – | – | 16 | 3 | 25 | C-24* (MIC ≤64 μg/mL for at least one BRD pathogenic strain) | – |
